Our source for the MIC values is patent publication US20130165368A1, “ANTIMICROBIAL COMPOUNDS” (priority 2010, published 2013).

Common to all, as to assay type: cell-based
One experiment relates to Steptococcus pyogenes. Nature of the experiment: MIC agar dilution, micro-organism 11 (8306). Particulars: Steptococcus pyogenes 8306, read-out: MIC. Summed up: (§1)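 Agar dilution in Isosensitest/CCEY agar with egg yolk and lysed horse blood; compounds as aqueous emulsions (myristyl and lauryl alcohol with 1-methyl-2-pyrrolidone and Tween 20). 1 µL spots of 1/15-diluted 0.5 McFarland suspensions, 37 °C aerobic, read at 22 and 48 h; MIC (mmol/L) is lowest concentration giving <10 colonies.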

Another experiment has as its system Enterococcus faecium. Nature of the experiment: MIC agar dilution, micro-organism 16 (7171). Particulars: Enterococcus faecium 7171, read-out: MIC. Summed up: as §1
The subject of experiment [1] is Enterococcus faecium (VRE) 12185 Clin waste. In words: MIC agar dilution, VRE strain 24. The method, then: (§2) Molar equivalent concentrations were used to allow comparison between compounds of differing molecular mass. Due to weighing difficulties, any compound in solid form was melted in a water bath prior to dilution. To make ten-times strength concentrations, which takes into account agar dilution, 0.0352 mmol of each compound was weighed into plastic universal bottles and 4 mL of sterile distilled water (SDW) was added. To produce a homogenous emulsion the universals were vortexed; once achieved the emulsions were serial diluted by adding 2 mL to 2 mL of SDW.
(§3) For every 100 mL of Isosensitest agar (IST) (CM0471; Oxoid, Basingstoke, England), 3.1 g of the IST powder was added to 100 mL SDW (as per manufacturer's instructions) and sterilised for 15 minutes at 121° C. Once sterilised, the molten agar was cooled to 50° C. in a water-bath. Subsequently 4.8 g of CCEY powder (BC2160; Bioconnections, Wetherby, England), also known as Brazier's medium, was added to 100 mL SDW for every 100 mL of agar needed. This was then sterilised for 15 minutes at 121° C. Once sterilised the molten agar was cooled to 50° C. in a water-bath and 4 mL of egg-yolk emulsion (S2073; TCS Biosciences Ltd, Buckingham, United Kingdom) and 1 mL of lysed defibrinated horse blood (HB035; TCS Biosciences Ltd, Buckingham, United Kingdom) were also added for every 100 mL needed. Horse blood lysis is achieved by dilution to half concentration with SDW; when fully lysed the mixture will turn dark red in colour.
(§4) 18 mL agar was added to each universal and then poured into sterile Petri dishes. This step creates a 1/10 dilution resulting in agar plates of the required strength. Control plates for each set of strains were created by adding 18 mL of agar to 2 mL of SDW.
(§5) Suspensions of each bacterial species were prepared with a density equal to that of a 0.5 McFarland standard using a densitometer. All suspensions were made using sterile distilled water and fresh 18-20 hour cultures. As a 0.5 McFarland standard contains 1.5×10^8 CFU/mL and the multipoint inoculators applies 1 μL spots of liquid, each bacterial suspension was diluted 1/15 (20 μL suspension to 280 μL sterile distilled water).
(§6) Bacterial suspensions were prepared from fresh 18-24 hour cultures as previously described. 1 μL of each strain was inoculated onto all 100 agar plates containing a different chemical concentration and the 2 control plates. This was done using a multipoint inoculator which inoculates 20 strains per plate. All plates were incubated for 22 hours at 37° C. in aerobic conditions.
(§7) Each plate was examined for bacterial growth after 22 and 48 hours, with each being incubated in between examinations. A positive result was recorded as growth of ≧10 colonies. A negative result was recorded as growth of <10 colonies as this is equivalent to 99.9% inhibition. The lowest concentration of chemical that inhibited growth was recorded as the MIC. The results are recorded in Table IV below, where the numbers are quoted in mmol/L.
(§8) Given the positive performance of the ethoxylates of lauryl alcohol in reducing the MIC for a number of the micro-organisms tested, further MIC testing of Laureth-1 [C12E1] through to Laureth-8 [C12E8] was conducted on each of the following: • 10 strains of vancomycin-resistant enterococci (VRE)—listed in Table V below; and • 20 strains of methicillin-resistant Staphylococcus aureus (MRSA)—listed in Table VI.
(§9) The alkanol, alkanol derivatives, agar plates, and inocula were all prepared in the same way as described above.
(§10) The plates were examined in the same manner as described above and the results are recorded in Table VII below, where the numbers are quoted in mmol/L.

The test system of experiment [2] is Enterococcus faecium (VRE) MB310. Nature of the experiment: MIC agar dilution, VRE strain 29. The method, then: as §2, §3, §4, §5, §6, §7, §8, §9, §10
In experiment [3] the test system is Enterococcus faecium (VRE) NCTC 12952. Nature of the experiment: MIC agar dilution, VRE strain 30. The method, then:
as §2, §3, §4, §5, §6, §7, §8, §9, §10

The subject of the next experiment is MRSA EMRSA 15 21268/98. In words: MIC agar dilution, MRSA strain 40. The conditions noted are these: Staphylococcus aureus. The method, then: as §2, §3, §4, §5, §6, §7, §8, §9, §10
Another experiment has as its system MRSA EMRSA 16 03732/95. Nature of the experiment: MIC agar dilution, MRSA strain 45. Particulars: Staphylococcus aureus. The method, then: as §2, §3, §4, §5, §6, §7, §8, §9, §10
The next experiment deals with MRSA EMRSA 16 00998/95. In words: MIC agar dilution, MRSA strain 47. The conditions noted are these: Staphylococcus aureus. The method, then:
as §2, §3, §4, §5, §6, §7, §8, §9, §10

Experiment [4] has as its system Gram negative bacteria, Gram positive bacteria and pathogenic yeasts. Nature of the experiment: MIC agar dilution, summary statements over the micro-organisms tested (Tables I, IX). The conditions noted are these: read-out: MIC.
Source text: For a better understanding, the present invention will now be more particularly described, by way of non-limiting example only, as follows. The micro-organisms shown in Table I overleaf were acquired from the National Collection of Type Cultures (NCTC), Colindale, United Kingdom; the American Type Culture Collection (ATCC), Manassas, United States and the National Collection of Pathogenic Fungi (NCPF), Colindale, United Kingdom. They include Gram negative bacteria, Gram positive bacteria and pathogenic yeasts.
Throughout the period of testing the microbial strains were subcultured and incubated for 18-20 hours at 37° C. on a weekly basis. Horse blood agar plates were used to sustain the micro-organisms both prior to and throughout testing. The alkoxylated alkanols listed in Table II below were obtained (these are obtainable from Sigma-Aldrich Company Ltd, Dorset, England), each having a GC purity of at least 97%.
as §2
Myristyl alcohol and lauryl alcohol were re-weighed and dissolved in 25 μL of the polar solvent 1-methyl-2-pyrrolidone (M6762; Sigma-Aldrich) in sterile glass universals due to an inability to achieve an even suspension. To maintain an even emulsion in the presence of SDW 37.5 μL of the non-ionic detergent Tween 20 (P1379, Sigma-Aldrich) was also added. 3.9375 mL of SDW was added to these, to create a 4 mL volume; they were vortexed and diluted as before.
as §3, §4, §5
Bacterial suspensions were prepared from fresh 18-24 hour cultures as previously described. 1 μL of each strain was inoculated onto all 100 agar plates containing a different chemical concentration and the 2 control plates. This was done using a multipoint inoculator which inoculates 20 strains per plate. All plates were incubated for 22 hours at 37° C. in aerobic conditions. […]

Molecules are shown by their SMILES. In brackets after ≈: the same amount, converted by molar mass. Read-outs that look alike come from different tables or passages of the source.

Consider `CCCCCCCCCCCCOCCOCCOCCOCCOCCOCCO` [L6, Hexaethylene Glycol Monododecyl Ether], for which the MIC in the experiment on Steptococcus pyogenes (22 h, 22 hrs) is at most 50 µM; in the experiment with Steptococcus pyogenes (48 h, 48 hrs), at most 50 µM; with Enterococcus faecium (22 hrs), 440 µM (≈ 198 µg/mL); in the experiment on Enterococcus faecium (48 hrs), 220 µM (≈ 99.1 µg/mL); in [1] (22 hrs) it was 880 µM (≈ 397 µg/mL); in experiment [1] (48 hrs), 880 µM (≈ 397 µg/mL). Moreover, the minimal inhibitory concentration (MIC) in experiment [2] (22 hrs) was 220 µM (≈ 99.1 µg/mL); in experiment [2] (48 hrs), 220 µM (≈ 99.1 µg/mL); in experiment [3] (22 hrs) it was over 880 µM; in [3] (48 hrs), over 880 µM; against MRSA EMRSA 15 21268/98 (22 hrs) it was 110 µM (≈ 49.6 µg/mL); against MRSA EMRSA 15 21268/98 (48 hrs), 110 µM (≈ 49.6 µg/mL). The minimal inhibitory concentration (MIC) in the experiment with MRSA EMRSA 16 03732/95 (22 hrs) was 220 µM (≈ 99.1 µg/mL); in the experiment on MRSA EMRSA 16 03732/95 (48 hrs), 220 µM (≈ 99.1 µg/mL); in the experiment with MRSA EMRSA 16 00998/95 (22 hrs), 220 µM (≈ 99.1 µg/mL); against MRSA EMRSA 16 00998/95 (48 hrs), 440 µM (≈ 198 µg/mL); in experiment [4], about 110 µM (≈ 49.6 µg/mL).

On to `CCCCCCCCCCCCOCCO` [L1, Ethylene Glycol Monododecyl Ether], for which the MIC was 220 µM (≈ 50.7 µg/mL) in the experiment on Steptococcus pyogenes (22 h, 22 hrs); 220 µM (≈ 50.7 µg/mL) in the experiment with Steptococcus pyogenes (48 h, 48 hrs); over 880 µM with Enterococcus faecium (22 hrs); over 880 µM in the experiment on Enterococcus faecium (48 hrs); 880 µM (≈ 203 µg/mL) in experiment [1] (22 hrs); 880 µM (≈ 203 µg/mL) in experiment [1] (48 hrs). The minimum inhibitory concentration (MIC) in experiment [2] (22 hrs) stood at 440 µM (≈ 101 µg/mL); in experiment [2] (48 hrs) it was 440 µM (≈ 101 µg/mL); in experiment [3] (22 hrs), 220 µM (≈ 50.7 µg/mL); in [3] (48 hrs) it was 220 µM (≈ 50.7 µg/mL); in the experiment on MRSA EMRSA 15 21268/98 (22 hrs), 220 µM (≈ 50.7 µg/mL); against MRSA EMRSA 15 21268/98 (48 hrs) it was 220 µM (≈ 50.7 µg/mL). For the same molecule, the minimum inhibitory concentration (MIC) against MRSA EMRSA 16 03732/95 (22 hrs) was 220 µM (≈ 50.7 µg/mL); against MRSA EMRSA 16 03732/95 (48 hrs), 220 µM (≈ 50.7 µg/mL); in the experiment on MRSA EMRSA 16 00998/95 (22 hrs), 220 µM (≈ 50.7 µg/mL); in the experiment with MRSA EMRSA 16 00998/95 (48 hrs), 220 µM (≈ 50.7 µg/mL); in experiment [4] it was at most 440 µM.
